Data taken from US5869662A, “Photochromic benzopyran compounds” (Vision-Ease Lens, Inc., priority 1997, dated 1999).

How the values were obtained:
[1] = Maximum absorption wavelength (λmax) of the activated form in chloroform under ultraviolet irradiation; type: physicochemical; settings: UV irradiation, 350 nm
Experimental: Two grams of the propargyl alcohol obtained in Step 1 were mixed with 1.25 grams of 2-hydroxydibenzofuran in 200 milliliters of benzene. Twenty milligrams of p-toluenesultonic acid were then added and the mixture was stirred under reflux for 8 hours. The resultant mixture was cooled and washed with 10% aqueous sodium hydroxide. The organic solvent (benzene) was removed using a rotary evaporator. The resulting material was dissolved in hexane and the resulting hexane solution was cooled to yield a recrystallized product.
The recrystallized product formed in Step 2 of Example 1; the 3-(4-biphenytyl)-3-phenyl-8-methoxy-3H-naphtho[2,1b]pyran formed in Comparative Example 1; and a purchased sample of 3,3-diphenyl-3H-naphtho-[2,1b]pyran (identified as Comparative Example 2) were each individually dissolved in chloroform in separate containers. These chloroform dissolved substances were then irradiated with ultraviolet light with a maximum wavelength of 350 manometers and measured for maximum absorption wavelength, λmax. The fade time, T1/2, was then determined for each of the irradiated substances. […] The maximum absorption wavelength and fade time determined for the irradiated substances of Example 1 and Comparative Examples 1-2 are presented in Table 1: […]

[2] = Fade time (T1/2) of the activated form in chloroform at room temperature; type: physicochemical; settings: room temperature (72° F.), absorbance of activated form falls to one half of maximum after isolation from UV
Experimental: These chloroform dissolved substances were then irradiated with ultraviolet light with a maximum wavelength of 350 manometers and measured for maximum absorption wavelength, λmax. The fade time, T1/2, was then determined for each of the irradiated substances. The fade time for of the chloroform-dissolved substances is defined as the time interval, at room temperature (72° F.), for the absorbance of the activated form of each chloroform-dissolved substance to decrease to one half of the maximum absorbance, after the substance is isolated from the activating source of ultraviolet light.

[3] = Becker patent; cited from earlier work

SMILES	maximum absorption wavelength, λmax (only or shorter-wavelength maximum) [1] [nanometers]	fade time, T1/2 [2] [s]	photochromic at room temperature [3]
COc1ccc2c3c(ccc2c1)OC(c1ccccc1)(c1ccc(-c2ccccc2)cc1)C=C3 (stereo not shown) [Comparative Example 1, 3-(4-biphenylyl)-3-phenyl-8-methoxy-3H-naphtho[2,1b]pyran]	484	–	–
C1=CC(c2ccccc2)(c2ccccc2)Oc2ccc3ccccc3c21 [Comparative Example 2, 3,3-diphenyl-3H-naphtho-[2,1b]pyran]	434	13	photochromic at room temperature
